From patent US10239843B2 (CANCER RESEARCH TECHNOLOGY LIMITED, priority 2014, dated 2019) come the findings set out here.

Like-named read-outs stand apart in the source and are kept apart here.

Experiment [1] concerns the target Human Full Length PARG (Homo sapiens (Human), UniProt Q86W56). The experiment can be described thus: PARG enzyme assay (TR-FRET). Format: biochemical.
Experiment [2] concerns PARG in HeLa cell line. The experiment is described as follows: PARG cell assay (PAR chain immunofluorescence after MMS). The format is cell-based. To be noted: HeLa cells. Here is the method: This method is based on the detection of endogenous levels of poly (ADP) ribose chains present in the nucleus of HeLa cell line using indirect immunofluorescence. MMS stimulation increases PAR chains for up to 25 mins. After that point, PARG is active and breaks down the PAR chains, until by one hour after stimulation no PAR chains are detectable. Inhibition of PARG maintains PAR chains.
Briefly, following compound treatment and treatment with the DNA damaging agent methylmethanesulfonate (MMS), the cell monolayer is fixed, then permeabilised and incubated with a mouse monoclonal antibody raised against multimers of poly(ADP) ribose.
At the end of the 1 h dosing period, MMS was added to duplicates at a final concentration of 50 μg/mL, for a further hour.
Media was tipped off and the cells fixed with 50 μL ice-cold 95% MetOH/PBS for 15 mins at −20° C. Following a PBS wash, 50 μL PBS/0.1% Triton was added to the cells for 20 mins. Following another PBS wash, anti-PAR antibody (Calbiochem AM80) was diluted 1:4000 in a buffer (PBS+0.5% FBS+0.05% Tween20) and added to the cells and incubated overnight at 4° C.
Cells were washed three times with PBS and the plate sealed with a light-proof seal.

The mark [3] stands for this setting: read-out: PARG Biochem IC50 Geomean.
[4] abbreviates: Homo sapiens, MMS 50 μg/mL, read-out: PARG Cell IC50 Geomean.
The mark [5] stands for this setting: Homo sapiens, MMS treatment, read-out: PARG Cell IC50.
The mark [6] stands for this setting: MMS treatment, read-out: PARG Cell IC50.
Where [7] appears, read: MMS 50 μg/mL, read-out: PARG Cell IC50 Geomean.

Chain of Human Full Length PARG (Q86W56 whole entry): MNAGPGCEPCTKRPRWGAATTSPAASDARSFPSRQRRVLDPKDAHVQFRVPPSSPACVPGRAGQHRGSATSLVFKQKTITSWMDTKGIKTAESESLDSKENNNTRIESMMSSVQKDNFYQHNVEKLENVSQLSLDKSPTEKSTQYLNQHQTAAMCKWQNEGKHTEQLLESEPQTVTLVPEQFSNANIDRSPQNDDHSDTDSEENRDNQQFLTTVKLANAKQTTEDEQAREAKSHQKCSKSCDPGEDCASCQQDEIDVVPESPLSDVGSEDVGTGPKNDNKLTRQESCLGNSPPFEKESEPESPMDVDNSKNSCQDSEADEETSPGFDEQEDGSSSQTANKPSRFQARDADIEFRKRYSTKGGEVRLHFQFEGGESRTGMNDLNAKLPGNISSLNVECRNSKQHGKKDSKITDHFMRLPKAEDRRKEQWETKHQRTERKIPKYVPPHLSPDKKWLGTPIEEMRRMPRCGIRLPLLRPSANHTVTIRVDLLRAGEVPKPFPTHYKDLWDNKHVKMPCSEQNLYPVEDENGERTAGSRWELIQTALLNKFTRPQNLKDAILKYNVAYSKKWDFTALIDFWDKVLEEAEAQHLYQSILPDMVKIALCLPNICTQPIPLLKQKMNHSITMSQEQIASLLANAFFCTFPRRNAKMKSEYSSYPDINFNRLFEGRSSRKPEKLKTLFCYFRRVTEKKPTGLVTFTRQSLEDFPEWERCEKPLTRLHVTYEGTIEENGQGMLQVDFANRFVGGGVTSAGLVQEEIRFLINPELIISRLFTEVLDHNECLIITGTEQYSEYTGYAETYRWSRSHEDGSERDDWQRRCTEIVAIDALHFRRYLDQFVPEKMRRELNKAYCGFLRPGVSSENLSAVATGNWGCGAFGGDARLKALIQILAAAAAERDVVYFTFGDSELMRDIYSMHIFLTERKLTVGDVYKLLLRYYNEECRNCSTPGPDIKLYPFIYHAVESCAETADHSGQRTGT

In the case of `Cn1c(=O)n(Cc2cn[nH]c2)c(=O)c2cc(S(=O)(=O)NC3(C)CC3)ccc21` [Example 183, 1-methyl-N-(1-methylcyclopropyl)-2,4-dioxo-3-(1H-pyrazol-4-ylmethyl)quinazoline-6-sulfonamide], the IC50 – broadly, the concentration at which inhibition is half-maximal – in experiment [1] (setting [3]) turned out to be 379 nM; in experiment [2] (setting [4]) it was 931 nM.
As to `Cn1cc(Cn2c(=O)c3cc(S(=O)(=O)NC4(CF)CC4)ccc3n(CC3(CO)CC3)c2=O)cn1` [Example 570, N-[1-(Fluoromethyl)cyclopropyl]-1-[[1-(hydroxymethyl)cyclopropyl]methyl]-3-[(1-methylpyrazol-4-yl)methyl]-2,4-dioxo-quinazoline-6-sulfonamide], the IC50 in experiment [1] (read-out: PARG Biochem IC50) turned out to be 126 nM; in experiment [2] (setting [5]), 238 nM.
In the case of `Cc1cc(Cn2c(=O)n(Cc3cnn(C)c3)c(=O)c3cc(S(=O)(=O)NC4(CF)CC4)ccc32)on1` [Example 441, N-[1-(Fluoromethyl)cyclopropyl]-1-[(3-methylisoxazol-5-yl)methyl]-3-[(1-methylpyrazol-4-yl)methyl]-2,4-dioxo-quinazoline-6-sulfonamide], the IC50 is 24 nM in experiment [1] (read-out: PARG Biochem IC50) and 74 nM in experiment [2] (setting [6]).
On to `CC(=O)Cn1c(=O)n(Cc2cc(C)no2)c(=O)c2cc(S(=O)(=O)NC3(C)CC3)ccc21` [Example 323], for which the results for the IC50 in experiment [1] (setting [3]) and in experiment [2] (setting [4]) were 417 nM and 736 nM, respectively.
Consider `Cn1c(=O)n(CCC#N)c(=O)c2cc(S(=O)(=O)NC3(C)CC3)ccc21` [Example 497, 3-(2-Cyanoethyl)-1-methyl-N-(1-methylcyclopropyl)-2,4-dioxo-quinazoline-6-sulfonamide], for which the IC50 in experiment [1] (read-out: PARG Biochem IC50) stood at 2710 nM; in experiment [2] (setting [5]) it was 2250 nM.
In the case of `Cn1cc(Cn2c(=O)c3cc(S(=O)(=O)NC4(C)CC4)ccc3n(Cc3ccc(F)cc3)c2=O)cn1` [Example 171], the IC50 was determined as 49 nM in experiment [1] (setting [3]) and 103 nM in experiment [2] (setting [4]).
Turning to `Cc1cc(Cn2c(=O)c3cc(S(=O)(=O)NC4(CF)CC4)ccc3n(Cc3cc(C)no3)c2=O)on1` [Example 521, N-[1-(Fluoromethyl)cyclopropyl]-1,3-bis[(3-methylisoxazol-5-yl)methyl]-2,4-dioxo-quinazoline-6-sulfonamide], the IC50 in experiment [1] (read-out: PARG Biochem IC50) stood at 54 nM; in experiment [2] (setting [5]) it was 92 nM.
For `Cc1cc(Cn2c(=O)c3cc(S(=O)(=O)NC4(C)CC4)ccc3n(CC3CCC(F)(F)CC3)c2=O)on1` [Example 405, 1-[(4,4-Difluorocyclohexyl)methyl]-N-(1-methylcyclopropyl)-3-[(3-methylisoxazol-5-yl)methyl]-2,4-dioxo-quinazoline-6-sulfonamide], the IC50 in experiment [1] (read-out: PARG Biochem IC50) worked out at 248 nM; in experiment [2] (setting [5]), 144 nM.
With `Cc1cc(Cn2c(=O)c3cc(S(=O)(=O)NC4(C)CC4)ccc3n(CC3COC3)c2=O)on1` [Example 305], the IC50 in experiment [1] (setting [3]) stood at 340 nM; in experiment [2] (setting [7]) it was 323 nM.
`Cn1cc(Cn2c(=O)c3cc(S(=O)(=O)NC4(CF)CC4)ccc3n(Cc3ncnn3C)c2=O)cn1` [Example 562, N-[1-(Fluoromethyl)cyclopropyl]-3-[(1-methylpyrazol-4-yl)methyl]-1-[(2-methyl-1,2,4-triazol-3-yl)methyl]-2,4-dioxo-quinazoline-6-sulfonamide]: the 50% inhibitory concentration (IC50) in experiment [1] (read-out: PARG Biochem IC50) is 192 nM; in experiment [2] (setting [6]) it was 598 nM.
For `Cn1cc(Cn2c(=O)c3cc(S(=O)(=O)NC4(C)CC4)ccc3n(CCF)c2=O)cn1` [Example 410, 1-(2-Fluoroethyl)-N-(1-methylcyclopropyl)-3-[(1-methylpyrazol-4-yl)methyl]-2,4-dioxo-quinazoline-6-sulfonamide], the IC50 in experiment [1] (read-out: PARG Biochem IC50) is 263 nM; in experiment [2] (setting [5]), 126 nM.
For the compound `Cc1cc(Cn2c(=O)[nH]c3ccc(S(=O)(=O)NC4(CF)CC4)cc3c2=O)on1` [Example 516, N-[1-(Fluoromethyl)cyclopropyl]-3-[(3-methylisoxazol-5-yl)methyl]-2,4-dioxo-1H-quinazoline-6-sulfonamide], the IC50 in experiment [1] (read-out: PARG Biochem IC50) is 443 nM; in experiment [2] (setting [5]), 807 nM.
Consider `Cc1cc(Cn2c(=O)c3cc(S(=O)(=O)NC4(C)CC4)ccc3n(CC3CC3)c2=O)on1` [Example 197], for which the IC50 in experiment [1] (setting [3]) came to 55 nM; in experiment [2] (setting [4]) it was 49 nM.
With `Cn1cc(Cn2c(=O)c3cc(S(=O)(=O)NC4(C)CC4)ccc3n(Cc3cnn(C)c3)c2=O)cn1` [Example 328], the IC50 was determined as 48 nM in experiment [1] (setting [3]) and 116 nM in experiment [2] (setting [4]).
On to `Cc1cc(Cn2c(=O)c3cc(S(=O)(=O)NC4(C)CC4)ccc3n(CC3(C)CCC3)c2=O)on1` [Example 467, 1-[(1-Methylcyclobutyl)methyl]-N-(1-methylcyclopropyl)-3-[(3-methylisoxazol-5-yl)methyl]-2,4-dioxo-quinazoline-6-sulfonamide], for which the IC50 in experiment [1] (read-out: PARG Biochem IC50) was found to be 361 nM; in experiment [2] (setting [5]), 214 nM.
As to `Cn1cc(Cn2c(=O)c3cc(S(=O)(=O)NC4(C)CC4)ccc3n(CC3COC3)c2=O)cn1` [Example 297], the IC50 in experiment [1] (setting [3]) stood at 69 nM; in experiment [2] (setting [4]), 272 nM.
As for `CCC(=O)Cn1c(=O)n(Cc2cnn(C)c2)c(=O)c2cc(S(=O)(=O)NC3(CF)CC3)ccc21` [Example 620, N-[1-(Fluoromethyl)cyclopropyl]-3-[(1-methylpyrazol-4-yl)methyl]-2,4-dioxo-1-(2-oxobutyl)quinazoline-6-sulfonamide], the IC50 in experiment [1] (read-out: PARG Biochem IC50) stood at 144 nM; in experiment [2] (setting [5]) it was 238 nM.
Turning to `Cn1cc(Cn2c(=O)c3cc(S(=O)(=O)NC4(C)CC4)c(F)cc3n(CC3CCOC3)c2=O)cn1` (stereo not drawn) [Example 395, 7-Fluoro-N-(1-methylcyclopropyl)-3-[(1-methylpyrazol-4-yl)methyl]-2,4-dioxo-1-(tetrahydrofuran-3-ylmethyl)quinazoline-6-sulfonamide], the half-inhibitory concentration (IC50) came to 60 nM in experiment [1] (setting [3]) and 156 nM in experiment [2] (setting [4]).
With `Cc1ccc(Cn2c(=O)c3cc(S(=O)(=O)NC4(C)CC4)ccc3n(C)c2=O)cn1` [Example 423, 1-Methyl-N-(1-methylcyclopropyl)-3-[(6-methyl-3-pyridyl)methyl]-2,4-dioxo-quinazoline-6-sulfonamide], the IC50 turned out to be 1600 nM in experiment [1] (read-out: PARG Biochem IC50) and 1350 nM in experiment [2] (setting [5]).
`Cc1cc(Cn2c(=O)c3cc(S(=O)(=O)NC4(CF)CC4)ccc3n(Cc3cc(C)nn3C)c2=O)on1` [Example 519, 1-[(2,5-Dimethylpyrazol-3-yl)methyl]-N-[1-(fluoromethyl)cyclopropyl]-3-[(3-methylisoxazol-5-yl)methyl]-2,4-dioxo-quinazoline-6-sulfonamide]: the values for the IC50 in experiment [1] (read-out: PARG Biochem IC50) and in experiment [2] (setting [5]) were 50 nM and 312 nM, respectively.
With `CC1(NS(=O)(=O)c2ccc3[nH]c(=O)n(CCC#N)c(=O)c3c2)CC1` [Example 496, 3-(2-Cyanoethyl)-N-(1-methylcyclopropyl)-2,4-dioxo-1H-quinazoline-6-sulfonamide], the IC50 in experiment [1] (read-out: PARG Biochem IC50) came out at 2670 nM; in experiment [2] (setting [6]) it was 5490 nM.
Turning to `Cc1cc(COc2nc3ccc(S(=O)(=O)NC4(C)CC4)cc3c(=O)n2Cc2cnc(C)s2)n(C)n1` [Example 164], the IC50 in experiment [1] (setting [3]) stood at 343 nM; in experiment [2] (setting [7]) it was 782 nM.
In the case of `Cn1cc(CN2C(=O)c3cccc4cc(S(=O)(=O)NC5(C)CC5)cc(c34)C2=O)cn1` [Example 454, N-(1-Methylcyclopropyl)-2-[(1-methylpyrazol-4-yl)methyl]-1,3-dioxo-benzo[de]isoquinoline-5-sulfonamide], the IC50 in experiment [1] (read-out: PARG Biochem IC50) stood at 728 nM; in experiment [2] (setting [5]), 2070 nM.
As to `Cn1cc(Cn2c(=O)c3cc(S(=O)(=O)NC4(CF)CC4)ccc3n(CC3CCOCC3)c2=O)cn1` [Example 442, N-[1-(Fluoromethyl)cyclopropyl]-3-[(1-methylpyrazol-4-yl)methyl]-2,4-dioxo-1-(tetrahydropyran-4-ylmethyl)quinazoline-6-sulfonamide], the IC50 in experiment [1] (read-out: PARG Biochem IC50) was found to be 43 nM; in experiment [2] (setting [5]), 134 nM.
Take `Cc1ncc(Cn2c(=O)c3cc(S(=O)(=O)NC4(C#N)CC4)ccc3n(Cc3ccc(F)cc3)c2=O)s1` [Example 402, N-(1-Cyanocyclopropyl)-1-[(4-fluorophenyl)methyl]-3-[(2-methylthiazol-5-yl)methyl]-2,4-dioxo-quinazoline-6-sulfonamide]: the IC50 in experiment [1] (read-out: PARG Biochem IC50) worked out at 66 nM; in experiment [2] (setting [5]) it was 167 nM.
Turning to `Cn1cc(Cn2c(=O)c3cc(S(=O)(=O)NC4(C)CC4)ccc3n(CC3CC3)c2=O)cn1` [Example 174], the IC50 in experiment [2] (setting [4]) was found to be 56 nM.
Still for that read-out and setting: the same measure for `CCC#CCn1c(=O)n(C)c(=O)c2cc(S(=O)(=O)NC3(C)CC3)ccc21` [Example 137]: 608 nM.
Take `Cc1cc(Cn2c(=O)c3cc(S(=O)(=O)NC4(CF)CC4)ccc3n(CCF)c2=O)on1` [Example 526, 1-(2-Fluoroethyl)-N-[1-(fluoromethyl)cyclopropyl]-3-[(3-methylisoxazol-5-yl)methyl]-2,4-dioxo-quinazoline-6-sulfonamide]: the IC50 in experiment [2] (setting [5]) was found to be 133 nM.
`Cc1cc(Cn2c(=O)n(Cc3nnc(C)s3)c(=O)c3cc(S(=O)(=O)NC4(CF)CC4)ccc32)n(C)n1` [Example 603, 1-[(2,5-Dimethylpyrazol-3-yl)methyl]-N-[1-(fluoromethyl)cyclopropyl]-3-[(5-methyl-1,3,4-thiadiazol-2-yl)methyl]-2,4-dioxo-quinazoline-6-sulfonamide]: the IC50 in experiment [2] (setting [5]) was 496 nM.
